Assay [1] has as its system splenic iNKT cells. Description: Primary iNKT cell activation in vivo (intracellular IFN-γ, serum IL-4). The arrangement: species or system mouse. As to the method:
(§1) FIG. 1: DCs are crucial for iNKT cell primo-activation and for the prevention of iNKT cell anergy. (A) Transgenic CD11c.DTR mice were injected with PBS or DT 24 h before α-GalCer inoculation (100 ng/mouse). (B) Spleen DCs were sorted on the basis of CD11c expression and sensitized for 2 h with α-GalCer (25 ng/ml). Mice were then injected with α-GalCer-sensitized DCs or free α-GalCer (100 ng/mouse). A and B, Mice were euthanized 3 h after α-GalCer (A and B) or DC/α-GalCer (B) inoculation (primo-activation, grey) or received a second intravenous injection of α-GalCer (100 ng/mouse) 7 days later (recall response, black). In these later groups, animals were sacrificed 3 h after α-GalCer challenge. Splenic iNKT cells were then analysed for intracellular IFN-γ production. A representative experiment out of two (A) or three (B) is shown (mean±SD) (n=4). ** p<0.01, * p<0.05 (unpaired Student's t test).
FIG. 4: Encapsulation of α-GalCer in NP/DEC205 efficiently activates iNKT cells in vivo. Mice were intravenously injected with PBS alone or α-GalCer either in a free soluble form or encapsulated into NP/DEC205 or NP/IgG (5 ng α-GalCer/mouse). […] Production of IL-4 in the sera was quantified by ELISA (right panel) (n=3-8). […] The expression of CD86 (expressed as MFI) by DCs (CD11c^hi) is depicted. […]
FIG. 5: Targeting α-GalCer into CD8α^+ DCs prevents iNKT cell anergy in vivo. […] Production of IL-4 in the sera was quantified by ELISA (right panel). […]
Cells were resuspended in the appropriate combination of Abs to allow identification of DC subsets (anti-CD11c, anti-CD8α, anti-CD11b), iNKT cells (anti-TCRβ, PBS-57-loaded CD1d tetramer), NK cells (anti-CD3ε, anti-NK1.1) or γδ T lymphocytes (anti-TCRγδ, anti-CD3ε). […] Expression of intracellular IFN-γ was analysed as previously described.^32 To measure Cy5-α-GalCer incorporation by splenic DC subsets, mice were intravenously injected with Cy5-conjugated α-GalCer (20 μg) and 2 h later, incorporation of Cy5 by spleen DC subsets was analysed by flow cytometry. […]

Assay [2] deals with splenic iNKT cells. Description: iNKT cell recall response / anergy in vivo. The arrangement: species or system mouse. As to the method:
as §1
FIG. 5: Targeting α-GalCer into CD8α^+ DCs prevents iNKT cell anergy in vivo. Mice were intravenously injected with PBS, free α-GalCer (100 ng/mouse) or α-GalCer encapsulated into NP/DEC205 or NP/IgG (5 ng/mouse). A, After 3 h, mice were bled and splenic iNKT cells were screened for intracellular IFN-γ production. The average percentages±SD of iNKT cells positive for IFN-γ are represented (left panel). Production of IL-4 in the sera was quantified by ELISA (right panel). B, Mice received, 7 days later, a second injection of free α-GalCer ([…]) and spleen iNKT cells were screened for intracellular IFN-γ production 3 h later. […] A representative experiment out of two is shown (mean±SD) (n=3) C, The percentage±SD of iNKT cells expressing PD-1 is represented (7 days after α-GalCer stimulation). A representative experiment out of two is shown (n=4). ** p<0.01, * p<0.05 (unpaired Student's t test).
Mice were administrated intravenously with 200 μl of PBS containing 5 ng of free (or 100 ng as a control) or encapsulated α-GalCer. […] Splenic iNKT cells were analysed for intracellular IFN-γ expression and IFN-γ and IL-4 concentrations in the sera were determined by ELISA.

A further assay has as its system sorted hepatic NKT cells. Description: Ex vivo stimulatory capacity of in vivo α-GalCer-loaded DC subsets on NKT cells. The format is cell-based, mouse. As to conditions: DCs sorted 2 h after i.v. α-GalCer 2 μg; 48 h co-culture. As to the method: (§2) FIG. 2: CD8α^+ and CD8α^− DCs differ in their ability to activate iNKT cells. A, B and C, Mice were intravenously injected with α-GalCer (2 μg). Two hours later, splenic CD8α^+ and CD8α^− DCs were sorted on the basis of CD11c, CD11b and CD8 expression (A) and co-cultured with sorted NKT cells (B) or with the α-GalCer-responsive IL-2-producing iNKT cell hybridoma DN32.D3 as a readout of Ag presentation (C). B and C, Cytokine production was quantified by ELISA. Results represent the mean±SD of four experiments. D, CD1d expression on CD8α^+ and CD8α^− DCs was assessed by flow cytometry. The staining with the isotype control was identical on both DC subsets. […] E, Recipient mice were intravenously injected with Cy5-conjugated, or unconjugated as a control, α-GalCer (20 μg) and Cy5 incorporation by CD8α^+ DCs (grey) and CD8α^− DCs (black) was analyzed by flow cytometry 2 h later. […]
(§3) To assess the capacity of DCs to bind/uptake PLGA-based NPs, bone marrow-derived DCs (BM-DCs) (5×10^5 cells/well)^32 or spleen mononuclear cells (MNCs) (1×10^6 cells/well) were exposed with AlexaFluor647-labelled particles (10 μg/ml and 100 μg/ml, respectively) during 2 h at 37° C. After extensive washes, BM-DC (CD11c^+ DEC205^+/−) and spleen CD8α^+ and CD8α^− DCs were analysed by flow cytometry. […] Production of IFN-γ, IL-4 and IL-2 was measured in the culture supernatants by ELISA (R&D systems).

Assay [3] relates to iNKT cell hybridoma DN32.D3. As to the kind of experiment: Ex vivo stimulatory capacity of in vivo α-GalCer-loaded DC subsets on DN32.D3. Format: cell-based, mouse. As to conditions: DCs sorted 2 h after i.v. α-GalCer 2 μg; 24 h co-culture. As to the method: as §2, §3

As for `CCCCCCCCCCCCCCCCCCCCCCCCCC(=O)N[C@@H](CO[C@H]1O[C@H](CO)[C@H](O)[C@H](O)[C@H]1O)[C@H](O)[C@H](O)CCCCCCCCCCCCCC` [α-GalCer, (2S,3S,4R)-1-O-(alpha-D-galactosyl)-N-hexacosanoyl-2-amino-1,3,4-octadecanetriol], the “Primary iNKT cell activation after DC depletion” value in the assay on splenic iNKT cells [1] (CD11c.DTR mice, DT 24 h before, α-GalCer 100 ng/mouse) is “strongly lowered the extent of primary iNKT cell activation”. Besides, the “Primary iNKT cell activation, low dose in NP/DEC205 vs high dose free” value in the assay with splenic iNKT cells [1] (NP/DEC205 5 ng/mouse, free α-GalCer 100 ng/mouse, 3 h) is on record as “comparable primary iNKT cell activation”. In addition, the “Primary iNKT cell activation, free α-GalCer vs α-GalCer-sensitized DCs” value in the assay with splenic iNKT cells [1] (free 100 ng/mouse, DCs sensitized 2 h with 25 ng/ml, 3 h) is “triggered a similar primary activation of iNKT cells”. In the assay with splenic iNKT cells [2] (7 days after α-GalCer stimulation, listed as free α-GalCer), the “PD-1 expression on iNKT cells” value is “induced enhanced PD-1 expression on iNKT cells”. In addition, the “Recall response when DCs lacking at primary stimulation” value with splenic iNKT cells [2] (CD11c.DTR mice treated with DT, α-GalCer 100 ng/mouse, rechallenge day 7) was “totally blunted”. In the assay on splenic iNKT cells [2] (second injection of free α-GalCer 100 ng 7 days later, 3 h), the “iNKT cell anergy (IFN-γ recall response)” value is given as “induced the expected iNKT cell anergy”. Also, the “Secretion of IFN-γ and IL-4 by NKT cells co-cultured with DC subsets” value in the assay with sorted hepatic NKT cells is “CD8α^+ DCs promoted a much stronger secretion of IFN-γ and IL-4”. Also, in assay [3], the “IL-2 production by DN32.D3 co-cultured with DC subsets” value is “CD8α^+ DCs triggered a higher IL-2 production by the iNKT cell hybridoma DN32.D3”.

(Values after patent US20150374734A1, “ACTIVATION OF iNKT CELLS” (INSERM (INSTITUT NATIONAL DE LA SANTÉ ET DE LA RECHERCHE …, priority 2013, published 2015).)
